Earlier results in patent US20110256218A1, “CONTROLLED RELEASE COMPOSITIONS COMPRISING MECLIZINE OR RELATED PIPERAZINE DERIVATIVES” (EURAND, INC., priority 2010, published 2011).
Counter-ions that a name gives are not always drawn.

How the values were obtained:
[1] = weakly basic chemical entity
[2] = patients taking meclizine
[3] = in vivo
[4] = in humans

pKa [1] | plasma half-life [4] | Structure (SMILES) | sedation reported (common side effect) [2] | effects lasting (duration of action) [3] | onset of action [3]
6.2 | – | Cc1cccc(CN2CCN(C(c3ccccc3)c3ccc(Cl)cc3)CC2)c1 (stereo not drawn) [Meclizine 2HCl.H2O, 1-(p-chloro-α-phenylbenzyl)-4-(m-methylbenzyl)piperazine dihydrochloride monohydrate] | – | – | –
– | about 6 hours | Cc1cccc(CN2CCN(C(c3ccccc3)c3ccc(Cl)cc3)CC2)c1 (centres unmarked) [meclizine] | 20%-30% | 8 to 24 h | about 1 hour
